Results from PubChem BioAssay AID1259411 (Chemical Carcinogenesis Research Information System (CCRIS), 2018).
Active and inactive are the calls of the source. The rule behind the calls is not given here.

Tested on: rodent carcinogenicity bioassays, tumor incidence
Test: CCRIS carcinogenicity studies
Outline: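 NCI-built, expert-reviewed records of carcinogenicity and related test outcomes (mutagenicity, tumor promotion/inhibition) compiled from published and report sources, historical span 1985-2011, not updated.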

Compound: O[C@@H]1[C@@H]2O[C@@H]2c2c(cc3ccc4cccc5c6ccccc6c2c3c45)[C@H]1O
- carcinogen call (Species: MOUSE, Strain/Sex: ICR/FEMALE, Route: INTRAPERITONEAL, Dose: 0, 0.7 NMOL TOTAL DOSE INJECTED ON DAY 1 OF LIFE (STUDY DURATION: 35 WK), Tumor Site: Type of Lesion: LIVER: TUMOR, LUNG: TUMOR): active; positive
- carcinogen call (Species: MOUSE, Strain/Sex: ICR/FEMALE, Route: INTRAPERITONEAL, Dose: 0, 1 NMOL (TOTAL DOSE) ADMINISTERED IN DOSES OF 1/7, 2/7, AND 4/7 ON DAYS 1, 7, AND 15 OF LIFE, RESPECTIVELY (STUDY DURA, Tumor Site: Type of Lesion: LUNG: TUMOR): active; positive
- carcinogen call (Species: MOUSE, Strain/Sex: ICR/FEMALE, Route: INTRAPERITONEAL, Dose: 0, 1 NMOL TOTAL DOSE INJECTED IN DOSES OF 1/7 ON DAY 1, 2/7 ON DAY 8, AND 4/7 ON DAY 15 OF LIFE (STUDY DURATION: 35 WK), Tumor Site: Type of Lesion: LIVER: TUMOR, LUNG: TUMOR): active; positive
- carcinogen call (Species: MOUSE, Strain/Sex: ICR/MALE, Route: INTRAPERITONEAL, Dose: 0, 0.7 NMOL TOTAL DOSE INJECTED ON DAY 1 OF LIFE (STUDY DURATION: 35 WK), Tumor Site: Type of Lesion: LUNG: TUMOR): active; positive
- carcinogen call (Species: MOUSE, Strain/Sex: ICR/MALE, Route: INTRAPERITONEAL, Dose: 0, 1 NMOL (TOTAL DOSE) ADMINISTERED IN DOSES OF 1/7, 2/7, AND 4/7 ON DAYS 1, 7, AND 15 OF LIFE, RESPECTIVELY (STUDY DURA, Tumor Site: Type of Lesion: LUNG: TUMOR, LIVER: TUMOR): active; positive
- carcinogen call (Species: MOUSE, Strain/Sex: ICR/MALE, Route: INTRAPERITONEAL, Dose: 0, 1 NMOL TOTAL DOSE INJECTED IN DOSES OF 1/7 ON DAY 1, 2/7 ON DAY 8, AND 4/7 ON DAY 15 OF LIFE (STUDY DURATION: 35 WK), Tumor Site: Type of Lesion: LIVER: TUMOR, LUNG:TUMOR): active; positive
- carcinogen call (Species: RAT, Strain/Sex: CD-1/FEMALE, Route: INJECTION, Dose: 0, 0.2 UMOL IN 0.1 ML DMSO INJECTED BENEATH EACH OF THE 6 NIPPLES ON THE LEFT SIDE (STUDY DURATION: 41 WK), Tumor Site: Type of Lesion: MAMMARY GLAND: TUMOR): active; positive
- carcinogen call (Species: RAT, Strain/Sex: STRAIN-CD/FEMALE, Route: INJECTION, Dose: 0, 0.2 UMOL IN 0.1 ML DMSO INJECTED UNDER EACH OF THE 3 LEFT THORACIC NIPPLES FOLLOWED THE NEXT DAY BY SIMILAR TREATMENT, Tumor Site: Type of Lesion: MAMMARY GLAND: TUMOR): active; positive

Compound: Oc1ccc(Cl)cc1Cl
- carcinogen call (Species: MOUSE, Strain/Sex: B6C3F1/FEMALE, Route: ORAL, Dose: 0, 5000, 10000 PPM IN FEED FOR 103 WK (STUDY DURATION: 104 WK), Dose: 0, 5000, 10000 PPM IN FEED FOR 103 WK (STUDY DURATION: 104 WK)): inactive; negative
- carcinogen call (Species: MOUSE, Strain/Sex: B6C3F1/MALE, Route: ORAL, Dose: 0, 5000, 10000 PPM IN FEED FOR 103 WK (STUDY DURATION: 104 WK), Dose: 0, 5000, 10000 PPM IN FEED FOR 103 WK (STUDY DURATION: 104 WK)): inactive; negative
- carcinogen call (Species: RAT, Strain/Sex: F344/FEMALE, Route: ORAL, Dose: 0, 2500, 5000 PPM IN FEED FOR 103 WK (STUDY DURATION: 104 WK), Dose: 0, 2500, 5000 PPM IN FEED FOR 103 WK (STUDY DURATION: 104 WK)): inactive; negative
- carcinogen call (Species: RAT, Strain/Sex: F344/MALE, Route: ORAL, Dose: 0, 5000, 10000 PPM IN FEED FOR 103 WK (STUDY DURATION: 104 WK), Dose: 0, 5000, 10000 PPM IN FEED FOR 103 WK (STUDY DURATION: 104 WK)): inactive; negative

Compound: CC(C)(c1ccc(OCC2CO2)cc1)c1ccc(OCC2CO2)cc1 (configuration not stated)
- carcinogen call (Species: MOUSE, Strain/Sex: CF1/FEMALE, Route: DERMAL, Dose: 0, 1, 10% IN ACETONE 2D/WK FOR 2 YR (STUDY DURATION: 2 YR), Dose: 0, 1, 10% IN ACETONE 2D/WK FOR 2 YR (STUDY DURATION: 2 YR)): inactive; negative
- carcinogen call (Species: MOUSE, Strain/Sex: CF1/MALE, Route: DERMAL, Dose: 0, 1, 10% IN ACETONE 2D/WK FOR 2 YR (STUDY DURATION: 2 YR), Dose: 0, 1, 10% IN ACETONE 2D/WK FOR 2 YR (STUDY DURATION: 2 YR)): inactive; negative
- carcinogen call (Species: MOUSE, Strain/Sex: CF-1/FEMALE, Route: DERMAL, Dose: 0, 1, 10% IN ACETONE (TOTAL DOSE 0.2 ML) 2/WK APPLIED TO DORSAL SKIN FOR DURATION OF STUDY (STUDY DURATION: 2 YR), Dose: 0, 1, 10% IN ACETONE (TOTAL DOSE 0.2 ML) 2/WK APPLIED TO DORSAL SKIN FOR DURATION OF STUDY (STUDY DURATION: 2 YR)): inactive; negative
- carcinogen call (Species: MOUSE, Strain/Sex: CF-1/MALE, Route: DERMAL, Dose: 0, 1, 10% IN ACETONE (TOTAL DOSE 0.2 ML) 2/WK APPLIED TO DORSAL SKIN FOR DURATION OF STUDY (STUDY DURATION: 2 YR), Dose: 0, 1, 10% IN ACETONE (TOTAL DOSE 0.2 ML) 2/WK APPLIED TO DORSAL SKIN FOR DURATION OF STUDY (STUDY DURATION: 2 YR)): inactive; negative

Compound: O=[Si]=O
- carcinogen call (Species: MOUSE, Strain/Sex: STRAIN-A/MALE, Route: INTRATRACHEAL, Dose: 0, 9.75 MG/KG IN SALINE 1/WK FOR 15 WK (STUDY DURATION: 20 WK)): inactive; negative
- carcinogen call (Species: RAT, Strain/Sex: F344/FEMALE, Route: INHALATION, Dose: 0, 50 MG/M3 6 HR/D 5 D/WK FOR UP TO 24 MO (STUDY DURATION: 24 MO), Tumor Site: Type of Lesion: LUNG: CARCINOMA OR ADENOMA): active; positive
- carcinogen call (Species: RAT, Strain/Sex: F344/MALE,FEMALE, Route: INHALATION, Dose: 0, 1 MG/M3 6 HR/D 5 D/WK FOR 24 MO (STUDY DURATION: 25.5 MO), Tumor Site: Type of Lesion: LUNG: TUMOR): active; positive
- carcinogen call (Species: RAT, Strain/Sex: F344/MALE, Route: INHALATION, Dose: 0, 50 MG/M3 6 HR/D 5 D/WK FOR UP TO 24 MO (STUDY DURATION: 24 MO)): inactive; negative
- carcinogen call (Species: RAT, Strain/Sex: INBRED-W/MALE, FEMALE, Route: INTRAPERITONEAL, Dose: 20 MG ALKALINE-WASHED MIN-U-SIL CRYSTALS (A COMMERCIAL FINE QUARTZ, 99% PURE) IN 0.4 ML SALINE AUTOCLAVED SUSPENSION (ST, Tumor Site: Type of Lesion: HEMATOPOIETIC SYSTEM: THYMOMA OR LYMPHOSARCOMA, LYMPHOMA): active; positive
- carcinogen call (Species: RAT, Strain/Sex: INBRED-W/MALE, FEMALE, Route: INTRAPLEURAL, Dose: 20 MG ALKALINE-WASHED CRYSTALS (CRISTABOLITE FROM QUARTZ EXPOSED TO HIGH TEMPERATURE) IN A 0.4 ML SALINE AUTOCLAVED SUSP, Tumor Site: Type of Lesion: HEMATOPOIETIC SYSTEM: MALIGNANT HISTIOCYTIC LYMPHOMA, THYMOMA OR LYMPHOSARCOMA, LYMPHOMA): active; positive
- carcinogen call (Species: RAT, Strain/Sex: INBRED-W/MALE, FEMALE, Route: INTRAPLEURAL, Dose: 20 MG ALKALINE-WASHED CRYSTALS <5 µM IN SIZE IN A 0.4 ML SALINE AUTOCLAVED SUSPENSION INTO RIGHT AXILLA (STUDY DURATION:, Tumor Site: Type of Lesion: HEMATOPOIETIC SYSTEM: MALIGNANT HISTIOCYTIC LYMPHOMA, MALIGNANT TUMOR): active; positive
- carcinogen call (Species: RAT, Strain/Sex: INBRED-W/MALE, FEMALE, Route: INTRAPLEURAL, Dose: 20 MG ALKALINE-WASHED MIN-U-SIL CRYSTALS (A COMMERCIAL FINE QUARTZ, 99% PURE) IN 0.4 ML SALINE AUTOCLAVED SUSPENSION INT, Tumor Site: Type of Lesion: HEMATOPOIETIC SYSTEM: LYMPHOMA): active; positive
- carcinogen call (Species: Rat, Strain/Sex: Wistar/Female (48/group), Route: Intratracheal, Dose: 3 mg of 0.09-0.2 um particles given as 10 instillations before wk 26, study duration 112 wk or no treatment, Tumor Site: Type of Lesion: Lung: Bronchiolo-alveolar adenoma (2/37 experimental animals vs 0/46 control animals)): active; positive, low incidence of benign tumors.

Compound: CC(/C=C/C=C(\C)C(=O)O[C@@H]1O[C@H](CO[C@@H]2O[C@H](CO)[C@@H](O)[C@H](O)[C@H]2O)[C@@H](O)[C@H](O)[C@H]1O)=C\C=C\C=C(C)\C=C\C=C(/C)C(=O)O[C@@H]1O[C@H](CO[C@@H]2O[C@H](CO)[C@@H](O)[C@H](O)[C@H]2O)[C@@H](O)[C@H](O)[C@H]1O
- carcinogen call (Species: MOUSE, Strain/Sex: C57BL/FEMALE, Route: ORAL, Dose: 0, 0.2, 0.8% IN DRINKING WATER FOR 95 WK (STUDY DURATION: 95 WK), Dose: 0, 0.2, 0.8% IN DRINKING WATER FOR 95 WK (STUDY DURATION: 95 WK)): inactive; negative
- carcinogen call (Species: MOUSE, Strain/Sex: C57BL/MALE, Route: ORAL, Dose: 0, 0.2, 0.8% IN DRINKING WATER FOR 95 WK (STUDY DURATION: 95 WK), Dose: 0, 0.2, 0.8% IN DRINKING WATER FOR 95 WK (STUDY DURATION: 95 WK)): inactive; negative
